{"source": "patent US8846704B2", "about": "“Thiopyrimidine-based compounds and uses thereof” (YM Biosciences Austraila Pty Ltd, priority 2007, dated 2014)", "data": [{"molecular_target": "T1, BaF3 TELJAK3 cells (Homo sapiens, UniProt P52333)", "T1 construct": "fused on or other part: TEL (ETV6) N-terminal part, coding nucleotides 1-487, serves as the oligomerising partner; It is fused through a Sal I site to the JAK3 kinase domain and expressed from pTRE2 in BaF3 cells bearing pTET-off; P41212 (Transcription factor ETV6)", "T1 sequence (P52333 1-1124)": "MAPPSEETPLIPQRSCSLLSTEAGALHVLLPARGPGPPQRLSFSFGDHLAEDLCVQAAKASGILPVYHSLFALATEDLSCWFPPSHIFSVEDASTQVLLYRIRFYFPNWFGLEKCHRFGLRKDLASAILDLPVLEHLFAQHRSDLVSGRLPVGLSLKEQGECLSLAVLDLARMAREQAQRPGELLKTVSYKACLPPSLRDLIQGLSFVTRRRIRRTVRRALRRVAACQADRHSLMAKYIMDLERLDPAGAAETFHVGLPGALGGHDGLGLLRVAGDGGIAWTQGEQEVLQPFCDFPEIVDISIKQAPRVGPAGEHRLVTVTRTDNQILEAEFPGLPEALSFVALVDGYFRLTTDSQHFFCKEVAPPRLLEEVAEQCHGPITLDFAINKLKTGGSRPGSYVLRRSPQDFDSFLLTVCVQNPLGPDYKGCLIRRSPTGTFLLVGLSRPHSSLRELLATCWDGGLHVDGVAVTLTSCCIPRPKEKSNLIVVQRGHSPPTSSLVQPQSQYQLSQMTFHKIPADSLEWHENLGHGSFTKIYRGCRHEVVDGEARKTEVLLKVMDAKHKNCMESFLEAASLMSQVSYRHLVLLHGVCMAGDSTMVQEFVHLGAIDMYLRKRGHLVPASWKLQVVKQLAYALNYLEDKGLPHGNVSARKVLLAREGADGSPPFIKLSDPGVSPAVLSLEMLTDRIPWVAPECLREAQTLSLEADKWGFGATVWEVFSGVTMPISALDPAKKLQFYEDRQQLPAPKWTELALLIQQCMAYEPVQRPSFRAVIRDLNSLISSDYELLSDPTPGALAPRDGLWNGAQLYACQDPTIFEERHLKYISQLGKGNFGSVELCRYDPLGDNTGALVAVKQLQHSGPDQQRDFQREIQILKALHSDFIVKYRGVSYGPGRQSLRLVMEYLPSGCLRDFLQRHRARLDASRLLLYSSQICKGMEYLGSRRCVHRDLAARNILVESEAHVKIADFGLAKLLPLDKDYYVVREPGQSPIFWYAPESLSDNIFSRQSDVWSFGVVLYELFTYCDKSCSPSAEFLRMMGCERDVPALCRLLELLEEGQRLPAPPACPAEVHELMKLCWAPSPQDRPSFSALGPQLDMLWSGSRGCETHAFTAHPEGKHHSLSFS", "test": "Cellular screening, BaF3 TEL:JAK3 cells, Alamar Blue", "assay_type": "cell-based", "settings": "40 hr, read-out: BafT_J3 IC50_nM", "experimental": "For screening purposes, compounds were diluted in 96 well plates at a concentration of 20 μM. Plates were warmed at 37° C. for 30 minutes before the assay was performed.\nThe coding region encompassing nucleotides 1-487 of TEL was amplified by PCR using the oligonucleotides STEL (5′-GGAGGATCCTGATCTCTCTCGCTGTGAGAC-3′) [SEQ ID NO 14] and 3TEL (5′-AGGC GTCGACTTCTTCTTCATGGTTCTG-3′) [SEQ ID NO 15] and U937 mRNA as a template. A […] restriction site was incorporated into the STEL primer, and a Sal I restriction site was incorporated into the 3TEL primer. The regions encompassing the kinase domain of JAK2 (nucleotides 2994-3914; JAK2F 5′-ACGC GTCGACGGTGCCTTTGAAGACCGGGAT-3′ [SEQ ID NO 16]; JAK2R 5′-ATAGTTTAGCGGCCGCTCAGAATGAAGGTCATTT-3′) [SEQ ID NO 17] and JAK3 (nucleotides 2520-3469; JAK3F 5′-GAAGTCGACTATGCCTGCCAAGACCCCACGATCTT-3′) [SEQ ID NO 18] were generated by PCR using Taq DNA polymerase (Gibco/BRL) and […] as a template. A Sal I restriction site was incorporated into the forward primer of JAK2 and JAK3, a Not I site was incorporated into the JAK2 reverse primer and a Xba I site was added to the reverse primer of JAK3.\nThe TEL/Jak3 fusion was prepared by ligation of the JAK3 Sal I/Not I cleaved kinase domain PCR product with the BamH I/Sal I restriction digested TEL product, followed by ligation of the ligation product into the BamH I/Not I digested pTRE2, to give the TEL/Jak3 fusion plasmid pTELJAK3.\nThe growth factor dependant myelomonocytic cell line BaF3 bearing the pTET-off plasmid (Clontech) was transfected with either pTELJAK2 or pTELJAK3, and the transfected cells were selected for growth-factor independent cell growth. The BaF3 wild-type cells were cultured in DMEM containing 10% FCS, 10% WEHI 3B conditioned medium. The BaF3 TELJAK cells ([…]) were cultured in DMEM 10% Tet-System Approved FBS (without WEHI 3B conditioned medium).\nCell suspensions were prepared by harvesting cells from culture (the cells used in this test were in late log phase growth with high viability.) Cells were diluted in the appropriate growth medium, as described above, to 1.1× final concentration (from 50,000 cell/mL to 200,000 cell/mL, depending on cell line).\nCompounds to be tested were added (10 μL, 10× final concentration) to a flat bottomed 96-well plate. The cellular suspension (90 μL per well) was then added, and the plate incubated for 40 hr at 37° C., 5% CO2. Alamar Blue 10 μL per well was added and the plates returned to the incubator for a further 4-6 hours. The plates were then read at 544 nm.", "units": {"GI50": "nM"}, "values": [{"smiles": "Cc1cnc(Nc2ccc(N3CCOCC3)cc2)nc1Sc1ccc(NC(=O)CSCC(=O)O)cc1", "note": "[Compound 230, 2-(2-(4-(5-methyl-2-(4-morpholinophenylao)pyrimidin-4-ylthio)phenylao)-2-oxoethylthio)acetic acid]", "GI50": "> 20000"}, {"smiles": "CC#CC(=O)Nc1ccc(Sc2ccnc(Nc3cccc(N4CCOCC4)c3)n2)cc1", "note": "[Compound 233, N-(4-(2-(3-morpholinophenylao)pyrimidin-4-ylthio)phenyl)but-2-ynamide]", "GI50": "< 1000"}, {"smiles": "C=CC(=O)Nc1cccc(Sc2ccnc(Nc3cccc(N4CCOCC4)c3)n2)c1", "note": "[Compound 110, N-(3-(2-(3-morpholinophenylao)pyrimidin-4-ylthio)phenyl)acrylamide]", "GI50": "< 1000"}, {"smiles": "C=CC(=O)Nc1ccc(Sc2nc(Nc3ccc(OCCN4CCOCC4)cc3)ncc2C)cc1", "note": "[Compound 290, N-(4-(5-methyl-2-(4-(2-morpholinoethoxy)phenylao)pyrimidin-4-ylthio)phenyl)acrylamide]", "GI50": "< 1000"}, {"smiles": "C=CC(=O)Nc1cccc(Nc2nccc(Sc3ccccc3)n2)c1", "note": "[Compound 16, N-(3-(4-(phenylthio)pyrimidin-2-ylamino)phenyl)acrylamide]", "GI50": "< 1000"}, {"smiles": "CC#CC(=O)Nc1cccc(Nc2nccc(SC)n2)c1", "note": "[Compound 8, N-(3-(4-(methylthio)pyrimidin-2-ylao)phenyl)but-2-ynamide]", "GI50": "< 5000"}, {"smiles": "C=CC(=O)Nc1ccc(Sc2nc(Nc3ccc(N4CCOCC4)cc3)ncc2C)cc1CC", "note": "[Compound 260, N-(2-ethyl-4-(5-methyl-2-(4-morpholinophenylao)pyrimidin-4-ylthio)phenyl)acrylamide]", "GI50": "< 5000"}, {"smiles": "OCc1cccc(Sc2ccnc(Nc3ccc(N4CCOCC4)cc3)n2)c1", "note": "[Compound 62, (3-(2-(4-Morpholinophenylamino)pyrimidin-4-ylthio)phenyl)methanol]", "GI50": "< 20000"}, {"smiles": "C=CC(=O)Nc1ccc(Sc2nc(Nc3cccc(NS(C)(=O)=O)c3)ncc2C)cc1", "note": "[Compound 288, N-(4-(5-methyl-2-(3-(methylsulfonamido)phenylao)pyrimidin-4-ylthio)phenyl)acrylamide]", "GI50": "< 1000"}, {"smiles": "C=CC(=O)Nc1ccc(Sc2nc(Nc3ccc(N4CCOCC4)cc3)ncc2C)c(C)c1", "note": "[Compound 163, N-(3-methyl-4-(5-methyl-2-(4-morpholinophenylao)pyrimidin-4-ylthio)phenyl)acrylamide]", "GI50": "< 1000"}, {"smiles": "O=C(/C=C\\Cl)Nc1ccc(Sc2ccnc(Nc3ccc(N4CCOCC4)cc3)n2)cc1", "note": "[Compound 346, (Z)-3-chloro-N-(4-(2-(4-morpholinophenylao)pyrimidin-4-ylthio)phenyl)acrylamide]", "GI50": "< 1000"}, {"smiles": "C=CC(=O)Nc1cccc(Sc2ccnc(Nc3ccc(N4CCOCC4)cc3)n2)c1", "note": "[Compound 23, N-(3-(2-(4-morpholinophenylamino)pyrimidin-4-ylthio)phenyl)acrylamide]", "GI50": "< 1000"}, {"smiles": "C=CC(=O)Nc1ccc(Sc2nc(Nc3ccc(NS(C)(=O)=O)c(OC)c3)ncc2C)cc1", "note": "[Compound 296, N-(4-(2-(3-methoxy-4-(methylsulfonamido)phenylao)-5-methylpyrimidin-4-ylthio)phenyl)acrylamide]", "GI50": "< 1000"}, {"smiles": "C=CC(=O)Nc1ccc(Sc2nc(Nc3cccc(OC)c3)ncc2C)cc1", "note": "[Compound 235, N-(4-(2-(3-methoxyphenylao)-5-methylpyrimidin-4-ylthio)phenyl)acrylamide]", "GI50": "< 1000"}, {"smiles": "C=CC(=O)Nc1ccc(Sc2nc(Nc3cccc(N4CCOCC4)c3)ncc2I)cc1", "note": "[Compound 269, N-(4-(5-iodo-2-(3-morpholinophenylao)pyrimidin-4-ylthio)phenyl)acrylamide]", "GI50": "< 1000"}, {"smiles": "C=CC(=O)Nc1ccc(Sc2ccnc(Nc3cccc(N4CCOCC4)c3)n2)cc1", "note": "[Compound 77, N-(4-(2-(3-morpholinophenylao)pyrimidin-4-ylthio)phenyl)acrylamide]", "GI50": "< 1000"}, {"smiles": "Nc1ccc(Sc2nc(Nc3ccc(N4CCOCC4)cc3)ncc2F)cc1", "note": "[Compound 263, 4-(4-aophenylthio)-5-fluoro-N-(4-morpholinophenyl)pyrimidin-2-ae]", "GI50": "< 5000"}, {"smiles": "C=CC(=O)Nc1ccc(Sc2nc(Nc3ccc(N4CCCC(O)C4)cc3)ncc2C)cc1", "note": "(centres unmarked) [Compound 299, N-(4-(2-(4-(3-hydroxypiperidin-1-yl)phenylao)-5-methylpyrimidin-4-ylthio)phenyl)acrylamide]", "GI50": "< 1000"}, {"smiles": "Cc1cnc(Nc2ccc(N3CCOCC3)cc2)nc1Sc1ccc(N)nc1", "note": "[Compound 262, 4-(6-aopyridin-3-ylthio)-5-methyl-N-(4-morpholinophenyl)pyrimidin-2-ae]", "GI50": "> 20000"}, {"smiles": "C=CC(=O)Nc1ccc(Sc2ccnc(Nc3cccc(CO)c3)n2)cc1", "note": "[Compound 278, N-(4-(2-(3-(hydroxymethyl)phenylao)pyrimidin-4-ylthio)phenyl)acrylamide]", "GI50": "< 1000"}, {"smiles": "c1cc(Sc2ccc(Cn3cnnn3)cc2)nc(Nc2ccc(N3CCOCC3)cc2)n1", "note": "[Compound 109, 4-(4-((1H-tetrazol-1-yl)methyl)phenylthio)-N-(4-morpholinophenyl)pyrimidin-2-ae]", "GI50": "< 20000"}, {"smiles": "CNC(=O)/C=C\\C(=O)Nc1ccc(Sc2nc(Nc3ccc(N4CCOCC4)cc3)ncc2C)cc1", "note": "[Compound 389, N1-methyl-N4-(4-(5-methyl-2-(4-morpholinophenylao)pyrimidin-4-ylthio)phenyl)maleamide]", "GI50": "< 1000"}, {"smiles": "C=CC(=O)Nc1ccc(Sc2nc(Nc3ccc(N4CCC(CO)CC4)cc3)ncc2C)cc1", "note": "[Compound 286, N-(4-(2-(4-(4-(hydroxymethyl)piperidin-1-yl)phenylao)-5-methylpyrimidin-4-ylthio)phenyl)acrylamide]", "GI50": "< 1000"}, {"smiles": "N#Cc1ncn(Cc2ccc(Sc3ccnc(Nc4ccc(N5CCOCC5)cc4)n3)cc2)c1C#N", "note": "[Compound 201, 1-(4-(2-(4-morpholinophenylao)pyrimidin-4-ylthio)benzyl)-1H-imidazole-4,5-dicarbonitrile]", "GI50": "< 5000"}, {"smiles": "C=CC(=O)Nc1ccc(Sc2nc(Nc3ccc(N4CCOCC4)cc3)ncc2F)cc1", "note": "[Compound 268, N-(4-(5-fluoro-2-(4-morpholinophenylao)pyrimidin-4-ylthio)phenyl)acrylamide]", "GI50": "< 1000"}, {"smiles": "N#Cc1nnnn1Cc1ccc(Sc2ccnc(Nc3ccc(N4CCOCC4)cc3)n2)cc1", "note": "[Compound 155, 1-(4-(2-(4-morpholinophenylao)pyrimidin-4-ylthio)benzyl)-1H-tetrazole-5-carbonitrile]", "GI50": "< 20000"}]}]}
